# Measured values taken from PMC3198815 (PLoS ONE, 2011).
# Target: T1, xoFabV (Xanthomonas oryzae, UniProt Q2P9J6)
# T1 construct: gene fabV
# Conditions: weak binding, data not shown; no electron density in co-crystals
# T1 sequence (Q2P9J6 whole entry, looked up): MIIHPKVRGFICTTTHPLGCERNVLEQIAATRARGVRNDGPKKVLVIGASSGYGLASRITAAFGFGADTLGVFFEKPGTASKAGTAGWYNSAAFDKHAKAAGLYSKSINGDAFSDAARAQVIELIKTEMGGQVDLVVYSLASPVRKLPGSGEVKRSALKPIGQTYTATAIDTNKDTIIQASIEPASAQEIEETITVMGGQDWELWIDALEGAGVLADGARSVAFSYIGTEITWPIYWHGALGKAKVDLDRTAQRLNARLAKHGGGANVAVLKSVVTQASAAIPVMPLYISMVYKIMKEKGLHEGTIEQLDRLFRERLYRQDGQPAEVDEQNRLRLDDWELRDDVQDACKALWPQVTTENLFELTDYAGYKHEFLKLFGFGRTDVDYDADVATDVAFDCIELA
smiles,measurement,value
NC(=O)c1ccc[n+]([C@@H]2O[C@H](COP(=O)(O)OP(=O)(O)OC[C@H]3O[C@@H](n4cnc5c(N)ncnc54)[C@H](O)[C@@H]3O)[C@@H](O)[C@H]2O)c1 [NAD^+],isothermal titration calorimetry,NAD^+ binds weakly to xoFabV according to isothermal titration calorimetry assay (data not shown)
